Test results published in PubChem BioAssay (NCI).
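These data come from cells grown in 96-well plates and exposed to compound for 48 hours at five concentrations. TGI denotes the concentration required for complete inhibition of growth.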

Tests used:
Assay in all cases: NCI-60 cell line screen, 48 h
UACC-62 melanoma = system: UACC-62 melanoma
SK-MEL-5 melanoma = system: SK-MEL-5 melanoma
NCI-H460 lung = system: NCI-H460 lung
NCI-H226 lung = system: NCI-H226 lung
SK-MEL-2 melanoma = system: SK-MEL-2 melanoma
RXF 393 renal = system: RXF 393 renal
NCI-H23 lung = system: NCI-H23 lung
MOLT-4 leukemia = system: MOLT-4 leukemia
786-0 renal = system: 786-0 renal
HCT-15 colon = system: HCT-15 colon
SNB-19 CNS = system: SNB-19 CNS
CCRF-CEM leukemia = system: CCRF-CEM leukemia
OVCAR-3 ovarian = system: OVCAR-3 ovarian
OVCAR-5 ovarian = system: OVCAR-5 ovarian
SW-620 colon = system: SW-620 colon
SF-539 CNS = system: SF-539 CNS
EKVX NSCLC = system: EKVX NSCLC
SNB-75 CNS = system: SNB-75 CNS
DLD-1 colon = system: DLD-1 colon
UACC-257 melanoma = system: UACC-257 melanoma
XF 498 CNS = system: XF 498 CNS
M19-MEL melanoma = system: M19-MEL melanoma
KM12 colon = system: KM12 colon
K-562 leukemia = system: K-562 leukemia
COLO 205 colon = system: COLO 205 colon
SK-OV-3 ovarian = system: SK-OV-3 ovarian
A549 NSCLC = system: A549 NSCLC
SF-268 CNS = system: SF-268 CNS
MALME-3M melanoma = system: MALME-3M melanoma
ACHN renal = system: ACHN renal
UO-31 renal = system: UO-31 renal
U251 CNS = system: U251 CNS
SNB-78 CNS = system: SNB-78 CNS
HL-60(TB) leukemia = system: HL-60(TB) leukemia
HCC-2998 colon = system: HCC-2998 colon
OVCAR-4 ovarian = system: OVCAR-4 ovarian
NCI-H522 lung = system: NCI-H522 lung
SN12C renal = system: SN12C renal
HOP-18 NSCLC = system: HOP-18 NSCLC
SR leukemia = system: SR leukemia
SF-295 CNS = system: SF-295 CNS
KM20L2 colon = system: KM20L2 colon
OVCAR-8 ovarian = system: OVCAR-8 ovarian
HOP-92 NSCLC = system: HOP-92 NSCLC
IGROV1 ovarian = system: IGROV1 ovarian
DMS 273 small cell lung = system: DMS 273 small cell lung
LOX IMVI melanoma = system: LOX IMVI melanoma
RPMI-8226 leukemia = system: RPMI-8226 leukemia
M14 melanoma = system: M14 melanoma
HT29 colon = system: HT29 colon
SK-MEL-28 melanoma = system: SK-MEL-28 melanoma
LXFL 529 NSCLC = system: LXFL 529 NSCLC
TK-10 renal = system: TK-10 renal
DMS 114 small cell lung = system: DMS 114 small cell lung
HCT-116 colon = system: HCT-116 colon

Measured: TGI

COc1ccc(CC#C/C=C/C(=O)NCC(C)C)cc1
> 100 µM: all assays above
